Laboratory results published in patent US11993591B2, “Chromen-4-one derivatives for the treatment and prophylaxis of hepatitis B virus disease” (Hoffmann-La Roche Inc., priority 2018, dated 2024).

How the values were obtained:
[1] = system: HBV cccDNA (HBeAg level) in HepDES19 cells; experiment: Engineered HepDES19 primary screen assay (HBeAg as surrogate marker for cccDNA); format: cell-based; conditions: Hepatitis B virus, HepDES19, 120 h
Description: The assay was employed to screen for novel cccDNA inhibitors. HepDES19 is a cccDNA-producing cell line. In this cell line, HBeAg in the cell culture supernatant as surrogate marker, as HBeAg production depends on cccDNA level and activity. HepDES19 is an engineered cell line which contains a 1.1 unit length HBV genome, and pgRNA transcription from the transgene is controlled by Tetracycline (Tet). In the absence of Tet, pgRNA transcription will be induced, but HBV e antigen (HBeAg) could not be produced from this pgRNA due to very short leader sequence before the HBeAg start codon and the start codon is disrupted. Only after cccDNA is formed, the missing leader sequence and start codon mutation would be restored from the 3′-terminal redundancy of pgRNA, and then HBeAg could be synthesized. Therefore, HBeAg could be used as a surrogate marker for cccDNA (Zhou, T. et al., Antiviral Res. (2006), 72(2), 116-124; Guo, H. et al., J. Virol. (2007), 81(22), 12472-12484).
HepDES19 cells were seeded at 2×10^6 cells per T150 flask and cultured with the culture medium (Dulbecco's Modified Eagle Medium: Nutrient Mixture F-12 [DMEM-F12, Gibco Cat. 11320-82], 10% Fetal Bovine Serum [FBS, Clontech Cat. 631101], 0.1 mM Non-Essential Amino Acids Solution [NEAA, Gibco Cat. 11140-050], 50 μg/mL Penicillin-Streptomycin [PS, Invitrogen Cat. 15140-163], 500 μg/mL Geneticin [G418, Invitrogen Cat. 10131-027]) containing 3 μg/mL Tet (Sigma, Cat. 87128) for 5 days. Cells were then seeded at 4×10^6 cells per T150 in the same culture medium as described above in the absence of Tet for 8 days. Cells were then harvested and frozen at density of 2×10^6 cells per mL. For compound testing, the frozen cells were thawed and seeded into 96-well plates at a density of 6×10^4 cells per well. At 24 hours after seeding, half log serial dilutions of compounds made with Dimethyl sulfoxide (DMSO, Sigma, Cat. D2650) were further diluted with the same culture medium as described above before they were added to the cells to reach desired final compound concentrations and 1% DMSO concentration. Plates were then incubated at 37° C. for another 5 days before measurement of HBeAg level and cell viability. Intracellular HBeAg level were measured with enzyme-linked immunosorbent assay (ELISA) kit (Shanghai Kehua Diagnostic Medical Products Co., Ltd). Cell viability was assessed using Cell Counting Kit-8 (Donjindo, Cat. CK04-20). IC50 values were derived from the dose-response curve using 4 parameter logistic curve fit method.
The compounds of the present invention were tested for their capacity to inhibit extracellular HBeAg level as described herein.

[2] = system: HBV (extracellular HBsAg) in primary human hepatocytes; experiment: Cryopreserved Primary Human Hepatocytes (PHH) HBV infection assay; format: cell-based; conditions: Hepatitis B virus, Hepatocyte, 216 h; extracellular HBsAg (CLIA), HBV-infected cryopreserved PHH, 9 days post-compound treatment
Procedure: This assay is used to confirm the anti-HBV effect of the compounds in HBV PHH infection assay. Cryopreserved PHH (BioreclamationIVT, Lot YJM) was thawed at 37° C. and gently transferred into pre-warmed InVitroGRO HT medium (BioreclamationIVT, Cat. S03317).
The mixture was centrifuged at 70 relative centrifugal force (RCF) for 3 mins at RT, and the supernatant was discarded. Pre-warmed InVitroGRO CP medium (BioreclamationIVT, Cat #S03316) was added to the cell pellet to gently re-suspend cells. The cells were seeded at the density of 5.8×10^4 cells per well to collagen I coated 96-well plate (Gibco, Cat. A1142803) with the InVitroGRO CP medium. All plates were incubated at 37° C. with 5% CO2 and 85% humidity.
At 20 hours after plating, the medium was changed to PHH culture medium (Dulbecco's Modified Eagle Medium (DMEM)/F12 (1:1) (Gibco, Cat. 11320-033), 10% fetal bovine serum (Gibco Cat. 10099141), 100 U/mL penicillin, 100 μg/mL streptomycin (Gibco, Cat. 151401-122), […] (Invitrogen Cat. PHG0311L), 20 ng/mL dexamethasone (Sigma, Cat. D4902) and 250 ng/mL human recombinant insulin (Gibco, Cat. 12585-014)). And the cells were incubated at 37° C. with 5% CO2 and 85% humidity for 4 hours. The medium was then changed to pre-warmed PHH culture medium containing 4% polyethylene glycol (PEG) MW8000 (Sigma, Cat. P1458-50ML) and 1% DMSO (Sigma, Cat. D2650). 5.8×10^6 genomic equivalents of HBV were added into the medium.
At 24 hours post-infection, the cells were gently washed with PBS and refreshed with PHH culture medium supplemented with 1% DMSO, and 0.25 mg/mL Matrix gel (Corning, Cat. 356237) at 200 μL per well. All plates were immediately placed in at 37° C. CO2 incubator. 24 hours later, serial dilutions of compounds made with DMSO were further diluted with the same culture medium (PHH culture medium supplemented with 1% DMSO and 0.25 mg/mL Matrix gel as described above) before they were added to the cells to reach desired final compound concentrations and 1% DMSO concentration. The medium containing the compounds were refreshed every three days.
At 9 days post-compound treatment, extracellular HBsAg level were measured with Chemiluminescence Immuno Assay (CLIA) kit (Autobio, HBsAg Quantitative CLIA). Extracellular HBV DNA was extracted by MagNA Pure 96 system (Roche) and then determined by quantitative PCR with the following primers and probe: […]
HBsAg IC50 and HBV DNA IC50 values were derived from the dose-response curve using 4 parameter logistic curve fit method.

In the case of `O=C(Nc1ccc(Cl)cc1OC1CC(C(=O)O)C1)c1cc(=O)c2cccc(Cl)c2o1` (stereo not drawn) [Example 7, 3-(5-chloro-2-(8-chloro-4-oxo-chromene-2-carboxamido)phenoxy)cyclobutane-1-carboxylic Acid], the IC50 [1] is reported as 1.66 µM and the IC50 [2] is reported as 10 µM.
`Cc1cc(Cl)ccc1NC(=O)c1oc2ccc(Cl)cc2c(=O)c1C` [Example 3, 6-chloro-N-(4-chloro-2-methylphenyl)-3-methyl-4-oxo-chromene-2-carboxamide] showed an IC50 [1] of 0.64 µM and an IC50 [2] of 6.47 µM.
For `O=C(c1cc(=O)c2cccc(Cl)c2o1)N1Cc2ccc(Br)cc2C1` [Example 4, 2-(5-bromoisoindoline-2-carbonyl)-8-chloro-chromen-4-one], the IC50 [1] was 3.6 µM and the IC50 [2] was 6.58 µM.
